For data set [1], the system named is 2019 Novel Coronavirus, Isolate USA-WA1/2020 (SARS-CoV-2). Nature of the data set: In vitro efficacy in Calu-3 lung cells, immunostaining assay. The data set is classed as cell-based.
Data set [2] has the same test system. The experiment in a line: In vitro efficacy in Vero E6 cells, immunostaining assay (second testing series). It counts as cell-based. Conditions: for EC50: Severe acute respiratory syndrome coronavirus 2, Vero C1008.
Another data set has as its system SARS-CoV-2. The following applies: cited from earlier work; for dose for complete prevention of CPE: Vero E6, shorter drug treatment time, bortezomib could not completely prevent CPE at these doses.
The next data set has as its system human plasma protein. Conditions: IV administered bortezomib; average; cited from earlier work.
The test system of data set [3] is Vero E6 cells. Conditions: cited from earlier work.
Data set [4] deals with Vero E6 cells. Conditions: ranking of drugs for expected efficacy against SARS-CoV-2; cited from earlier work.
For data set [5] the following is noted: cited from earlier work.
The target of data set [6] is β5 chymotrypsin-like subunit of the 20S proteolytic site of the proteasome (Homo sapiens, UniProt P28074). Conditions: proteasome inhibitor dissociation; cited from earlier work.
The mark [7] stands for this setting: Vero E6, shorter treatment schedule.

For the compound `CCC(CC)COC(=O)[C@H](C)N[P@](=O)(OC[C@H]1O[C@@](C#N)(c2ccc3c(N)ncnn23)[C@H](O)[C@@H]1O)Oc1ccccc1` [Remdesivir], the EC50 in data set [1] (Severe acute respiratory syndrome coronavirus 2, Calu-3) was 252 nM; in data set [2], 1150 nM.
As to `CCN(CC)CCCC(C)Nc1ccnc2cc(Cl)ccc12` (stereo not shown) [chloroquine], in the data set with SARS-CoV-2, the “dose for complete prevention of CPE” value was 15 µM.
Consider `CC(C)C[C@H](NC(=O)[C@H](Cc1ccccc1)NC(=O)c1cnccn1)B(O)O` [Bortezomib], for which the EC50 in data set [1] (Calu-3 lung cells, MOI 0.001 TCID50/cell, immunostaining at 48±6 hours post inoculation, preliminary results, read-out: EC50) stood at 6.9 nM; in data set [1] (Severe acute respiratory syndrome coronavirus 2, Calu-3, Calu-3 lung cells, MOI 0.001 TCID50/cell, immunostaining at 48±6 hours post inoculation, preliminary results, read-out: EC50), 7.8 nM; in data set [2] (Vero E6 cells, MOI 0.001 TCID50/cell, immunostaining at 48±6 hours post inoculation, read-out: EC50) it was 9.92 nM. The EC100 entry in data set [1] (Calu-3 lung cells, whether EC100 was achieved) is on record as “Achieved”; in data set [2] (Vero E6 cells, whether EC100 was achieved), “Achieved”. Besides, in the data set on human plasma protein, the “in vitro binding to human plasma protein” value is 83%. In addition, the “dose for complete prevention of CPE” value with SARS-CoV-2 was over 30 µM. Further, in the data set with SARS-CoV-2 (setting [7]), the “doses at which inhibition of virus-induced cytopathic effects was observed” value is over 30 µM. Moreover, in the data set with SARS-CoV-2 (Vero E6 cells infected with SARS-CoV-2), the “concentration inhibiting virus-induced cytopathic effects (CPE)” value is 0.05 µM. Further, in the data set with Vero E6 cells [3] (setting [7]), the “doses at which cytotoxicity was observed” value is over 30 µM. Besides, in the data set on Vero E6 cells [3] (Vero E6 cells), the “concentration at which cytotoxicity was observed” value is 2 nM. Further, the “category in algorithmic prediction study” value in the data set on Vero E6 cells [4] is reported as “cytotoxic drug”. For the same compound, in data set [5] (IV administration or subcutaneous injection), the bioavailability is reported as 100%. The “time to peak plasma levels” value in data set [5] (after IV administration) is listed as “approximately 5 minutes”. In addition, the dissociation half-life in data set [6] is 1.83 h.
`CC(C)C[C@H](NC(=O)CNC(=O)c1cc(Cl)ccc1Cl)B(O)O` [Ixazomib]: the dissociation half-life in data set [6] was 0.3 h.

The values are drawn from patent publication US20240115588A1, “USE OF PROTEASOME INHIBITORS IN THE TREATMENT OF CORONAVIRUS INFECTIONS” (priority 2021, published 2024).
